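Protocol summary: plate cells (96-well), add compound at 5 concentrations, incubate 48 h, interpolate endpoints linearly. GI50 marks 50% less growth.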 Activity calls are given as the source filed them. Cut-off read from the data, not from the text of the source: active = GI50 up to about 1.1 µM and inactive = higher.
Tests used:
Experiment in all cases: growth of human tumour cells (NCI), 48 h
[1] = test system: HL-60
[2] = test system: PC-3
[3] = test system: Hs-578T
[4] = test system: HCT-116
[5] = test system: DU-145
[6] = test system: SK-MEL-2
[7] = test system: NCI-H460
[8] = test system: ACHN
[9] = test system: SF-295
[10] = test system: HOP-62
[11] = test system: SF-539
[12] = test system: U-251
[13] = test system: OVCAR-8
[14] = test system: MCF7
[15] = test system: MOLT-4
[16] = test system: HT-29
[17] = test system: SN12C
[18] = test system: NCI-H226
[19] = test system: EKVX

Row | Structure (SMILES) | GI50 [1] | GI50 [2] | GI50 [3] | GI50 [4] | GI50 [5] | GI50 [6] | GI50 [7] | GI50 [8] | GI50 [9] | GI50 [10] | GI50 [11] | GI50 [12] | GI50 [13] | GI50 [14] | GI50 [15] | GI50 [16] | GI50 [17] | GI50 [18] | GI50 [19]
1 | O=C(/C=C/c1cccs1)c1ccc([N+](=O)[O-])cc1 | 83.2 µM (inactive) | > 100 µM (inactive) | 65.5 µM (inactive) | 58.1 µM (inactive) | > 100 µM (inactive) | > 100 µM (inactive) | > 100 µM (inactive) | > 100 µM (inactive) | 90.8 µM (inactive) | > 100 µM (inactive) | > 100 µM (inactive) | > 100 µM (inactive) | > 100 µM (inactive) | 61.7 µM (inactive) | 71 µM (inactive) | > 100 µM (inactive) | > 100 µM (inactive) | 78.9 µM (inactive) | > 100 µM (inactive)
2 | O=C(O)c1ccc(OCc2ccccc2)c(Cl)c1 | > 100 µM (inactive) | > 100 µM (inactive) | > 100 µM (inactive) | > 100 µM (inactive) | > 100 µM (inactive) | > 100 µM (inactive) | > 100 µM (inactive) | > 100 µM (inactive) | > 100 µM (inactive) | > 100 µM (inactive) | > 100 µM (inactive) | > 100 µM (inactive) | > 100 µM (inactive) | > 100 µM (inactive) | > 100 µM (inactive) | > 100 µM (inactive) | > 100 µM (inactive) | > 100 µM (inactive) | > 100 µM (inactive)
3 | NCCN(CCN)/[N+]([O-])=N/O | > 100 µM (inactive) | > 100 µM (inactive) | > 100 µM (inactive) | > 100 µM (inactive) | > 100 µM (inactive) | > 100 µM (inactive) | 69.3 µM (inactive) | > 100 µM (inactive) | > 100 µM (inactive) | > 100 µM (inactive) | > 100 µM (inactive) | > 100 µM (inactive) | > 100 µM (inactive) | 47.4 µM (inactive) | > 100 µM (inactive) | > 100 µM (inactive) | > 100 µM (inactive) | > 100 µM (inactive) | > 100 µM (inactive)
4 | O=C1c2cccnc2C(=O)C2C3C=CC(C3)C12 (stereo not given) | 1.74 µM (inactive) | 10.2 µM (inactive) | 9.66 µM (inactive) | 3.85 µM (inactive) | 6.92 µM (inactive) | 5.08 µM (inactive) | 3.49 µM (inactive) | 7.53 µM (inactive) | 12.6 µM (inactive) | 6.68 µM (inactive) | 2.4 µM (inactive) | 4.23 µM (inactive) | 5.48 µM (inactive) | 3.52 µM (inactive) | – | 27.2 µM (inactive) | 12.8 µM (inactive) | 13 µM (inactive) | 13.4 µM (inactive)
5 | CC/C(Cl)=N\OC(=O)Nc1ccccc1OC(F)(F)F | 1.97 µM (inactive) | 18.1 µM (inactive) | 30.2 µM (inactive) | 7.08 µM (inactive) | 18.7 µM (inactive) | 17.7 µM (inactive) | 20.7 µM (inactive) | 1.91 µM (inactive) | 17.2 µM (inactive) | 19 µM (inactive) | 12.4 µM (inactive) | 26.4 µM (inactive) | 17.7 µM (inactive) | 9.12 µM (inactive) | 1.81 µM (inactive) | 21.3 µM (inactive) | 7.05 µM (inactive) | 19.1 µM (inactive) | 7 µM (inactive)
6 | Cc1cc(S(=O)(=O)N/C(=N/N)NCCc2ccccc2)c(S)cc1Cl | 44.1 µM (inactive) | 30.1 µM (inactive) | 25.5 µM (inactive) | 25.1 µM (inactive) | 18.5 µM (inactive) | 38.2 µM (inactive) | – | – | – | > 10 µM (inactive) | 24 µM (inactive) | 16.6 µM (inactive) | 18.9 µM (inactive) | 32.4 µM (inactive) | 17.7 µM (inactive) | 31.6 µM (inactive) | 33.5 µM (inactive) | 25.6 µM (inactive) | 34.8 µM (inactive)
7 | O=C1CCCCCCCCCCC1CN1CCCC1 (stereo not given) | 32 µM (inactive) | 30.8 µM (inactive) | 17.9 µM (inactive) | 33.4 µM (inactive) | 29.9 µM (inactive) | 17.9 µM (inactive) | 26.9 µM (inactive) | 54.8 µM (inactive) | 29.9 µM (inactive) | 17.1 µM (inactive) | 22.1 µM (inactive) | 26.7 µM (inactive) | 45.4 µM (inactive) | 20.5 µM (inactive) | 39.4 µM (inactive) | 17.9 µM (inactive) | 41.1 µM (inactive) | 15.4 µM (inactive) | –
8 | CC(=O)OCCn1c(Cc2ccc([N+](=O)[O-])cc2)nn(C(C)=O)c1=O | > 100 µM (inactive) | > 100 µM (inactive) | > 100 µM (inactive) | > 100 µM (inactive) | > 100 µM (inactive) | > 100 µM (inactive) | > 100 µM (inactive) | > 100 µM (inactive) | > 100 µM (inactive) | – | > 100 µM (inactive) | > 100 µM (inactive) | > 100 µM (inactive) | > 100 µM (inactive) | > 100 µM (inactive) | > 100 µM (inactive) | > 100 µM (inactive) | > 100 µM (inactive) | > 100 µM (inactive)
9 | O=C(N/N=C/c1ccc(Cl)cc1)c1c(Cl)c(Cl)c(Cl)c(Cl)c1-c1nc2ccccc2[nH]1 | > 100 µM (inactive) | 92.5 µM (inactive) | 1.83 µM (inactive) | 40.3 µM (inactive) | > 100 µM (inactive) | 93.1 µM (inactive) | 30 µM (inactive) | 64.6 µM (inactive) | 0.0405 µM (active) | 0.0452 µM (active) | > 100 µM (inactive) | – | – | 16.2 µM (inactive) | 40.2 µM (inactive) | 47.3 µM (inactive) | > 100 µM (inactive) | 0.224 µM (active) | 16.9 µM (inactive)
10 | CCCCCCCCCCC(C(=O)O)C1(C(=O)O)CCC(=O)O1 (stereo not given) | 90.8 µM (inactive) | > 100 µM (inactive) | > 100 µM (inactive) | > 100 µM (inactive) | > 100 µM (inactive) | > 100 µM (inactive) | > 100 µM (inactive) | > 100 µM (inactive) | > 100 µM (inactive) | > 100 µM (inactive) | – | > 100 µM (inactive) | > 100 µM (inactive) | > 100 µM (inactive) | > 100 µM (inactive) | > 100 µM (inactive) | > 100 µM (inactive) | > 100 µM (inactive) | > 100 µM (inactive)
11 | N[C@@H]1CCN(c2c(F)cc3c(=O)c(C(=O)O)cn4c3c2Oc2c-4ccc3c2ccc2ccccc23)C1 | 5.16 µM (inactive) | 2.82 µM (inactive) | 10.8 µM (inactive) | 1.08 µM (active) | 3.81 µM (inactive) | 7.8 µM (inactive) | 0.396 µM (active) | 0.305 µM (active) | 1.92 µM (inactive) | 1.38 µM (inactive) | 3.01 µM (inactive) | 0.571 µM (active) | 1.38 µM (inactive) | 0.667 µM (active) | 4 µM (inactive) | 0.241 µM (active) | 3.37 µM (inactive) | 19.9 µM (inactive) | 0.857 µM (active)

— ChEMBL document CHEMBL1201862, “PubChem BioAssay data set” (2004)
